This note sets out measurements from ChEMBL document CHEMBL4627274, “Optimized plant compound with potent anti-biofilm activity across gram-negative species” (Bioorg Med Chem, 2020).

Activity calls are given as the source filed them. The calls are words filed in the database; no cut-off is given here. Bounds are passed on as bounds.

As a reminder, the inhibition is the relative decrease from the control value, in per cent.

The test system of series [1] is Pseudomonas aeruginosa. As to the kind of experiment: Inhibition of swarming motility of Pseudomonas aeruginosa HONKR at 10 ug incubated for 18 to 24 hrs. Type of series: functional, organism-based.
The subject of series [2] is Pseudomonas aeruginosa. Description: Inhibition of swarming motility of Pseudomonas aeruginosa clinical isolates incubated for 16 to 20 hrs. Format: functional.
A further series relates to Burkholderia cepacia. Description: Inhibition of swarming motility of Burkholderia cepacia clinical isolates incubated for 16 to 20 hrs. Format: functional.
For another series, the system named is Salmonella enterica. As to the kind of experiment: Inhibition of swarming motility of Salmonella enterica clinical isolates incubated for 16 to 20 hrs. Type of series: functional.
Series [3] concerns Pseudomonas aeruginosa. As to the kind of experiment: Inhibition of swarming motility of Pseudomonas aeruginosa HONKR at 16 ug/mL incubated for 16 to 20 hrs relative to control. Type of series: functional.
For series [4], the system named is Escherichia coli. Description: Inhibition of swarming motility of Escherichia coli PY31 at 16 ug/mL incubated for 16 to 20 hrs relative to control. Format: functional.
The subject of series [5] is Escherichia coli. As to the kind of experiment: Antibiofilm activity against Escherichia coli UTI89 incubated for 2 days at 23 degC followed by 1 day incubation at RT. Format: functional.
Series [6] relates to Escherichia coli. Description: Inhibition of swarming motility of Escherichia coli clinical isolates incubated for 16 to 20 hrs. Format: functional.
The subject of the next series is Pseudomonas syringae. As to the kind of experiment: Inhibition of swarming motility of Pseudomonas syringae incubated for 16 to 20 hrs. Type of series: functional.
The subject of a further series is Xanthomonas campestris. As to the kind of experiment: Inhibition of swarming motility of Xanthomonas campestris incubated for 16 to 20 hrs. Format: functional.
Series [7] has as its system Pectobacterium atrosepticum. As to the kind of experiment: Inhibition of swarming motility of Pectobacterium atrosepticum incubated for 16 to 20 hrs. Format: functional.
For series [8], the system named is Pseudomonas aeruginosa. As to the kind of experiment: Downregulation of pilX gene expression in Pseudomonas aeruginosa by lacZ reporter gene based beta-galactosidase assay. Type of series: functional, organism-based.
The test system of series [9] is Pseudomonas aeruginosa. Description: Potentiation of tobramycin-induced inhibition of swarming motility in Pseudomonas aeruginosa HONKR assessed as reduction in biofilm formation at 0.125 ug/mL. Type of series: functional, organism-based.
The next series deals with M14. Description: Cytotoxicity against human M14 cells assessed as reduction in cell viability at < 10 uM. Type of series: cell-based.
Series [10] has as its system Pseudomonas aeruginosa. Description: Potentiation of colistin-induced inhibition of swarming motility in Pseudomonas aeruginosa HONKR assessed as reduction in biofilm formation at 0.125 ug/mL. Type of series: functional, organism-based.
Series [11] deals with Pseudomonas aeruginosa. As to the kind of experiment: Down regulation of pilA expression in swarm plate cultured Pseudomonas aeruginosa PAO1 incubated for 19 to 24 hrs by Western blot analysis. Format: functional, organism-based. For orientation: A western blot detects proteins with antibodies after separation by electrophoresis.
The subject of series [12] is Pseudomonas aeruginosa. As to the kind of experiment: Down regulation of pilY1 expression in swarm plate cultured Pseudomonas aeruginosa PAO1 incubated for 19 to 24 hrs by Western blot analysis. Format: functional, organism-based.

As to COLISTIN, in the series with Pseudomonas aeruginosa [1], the inhibition result is “inactive”.
With `CC[C@H]1OC(=O)[C@H](C)[C@@H](O[C@H]2C[C@@](C)(OC)[C@@H](O)[C@H](C)O2)[C@H](C)[C@@H](O[C@@H]2O[C@H](C)C[C@H](N(C)C)[C@H]2O)[C@](C)(O)C[C@@H](C)CN(C)[C@H](C)[C@@H](O)[C@]1(C)O` [AZITHROMYCIN], the INH in the series on Pseudomonas aeruginosa [2], in the series on Burkholderia cepacia and with Salmonella enterica was over 16 µg/mL throughout.
Consider `CC1(C)CC[C@]2(C(=O)O)CC[C@]3(C)C(=CC[C@@H]4[C@@]5(C)Cc6cn[nH]c6C(C)(C)[C@@H]5CC[C@]43C)[C@@H]2C1`, for which the inhibition at 16 µg/mL in the series on Pseudomonas aeruginosa [3] and in the series on Escherichia coli [4] was over 90% throughout. For the same compound, in the series on Escherichia coli [5], the MBIC50 turned out to be 4 µg/mL. The INH is 2 µg/mL with Pseudomonas aeruginosa [2], over 16 µg/mL with Escherichia coli [6], 0.5 µg/mL in the series on Burkholderia cepacia and 16 µg/mL in the series with Salmonella enterica.
In the case of `Cn1cc2c(n1)C(C)(C)[C@@H]1CC[C@]3(C)[C@H](CC=C4[C@@H]5CC(C)(C)CC[C@]5(C(=O)O)CC[C@]43C)[C@@]1(C)C2`, the inhibition at 16 µg/mL was over 90% in the series with Pseudomonas aeruginosa [3] and 80% with Escherichia coli [4]. For the same compound, the MBIC50 in the series on Escherichia coli [5] is 8 µg/mL. Further, the INH with Pseudomonas aeruginosa [2] was 16 µg/mL; in the series with Escherichia coli [6], over 16 µg/mL; in the series with Burkholderia cepacia, 1 µg/mL; in the series on Salmonella enterica, over 16 µg/mL.
On to `CC1(C)CC[C@]2(C(=O)O)CC[C@]3(C)C(=CC[C@@H]4[C@@]5(C)CC[C@H](O)C(C)(C)[C@@H]5CC[C@]43C)[C@@H]2C1` [OLEANOLIC_ACID], for which the inhibition at 16 µg/mL was over 90% with Pseudomonas aeruginosa [3] and 80% with Escherichia coli [4]. The MBIC50 result in the series with Escherichia coli [5] is “>=32 ug ml-1”. The INH in the series with Pseudomonas aeruginosa [2] was 8 µg/mL; with Escherichia coli [6] it was 16 µg/mL; with Burkholderia cepacia it was 0.5 µg/mL; with Salmonella enterica, over 64 µg/mL.
Consider `CC(C)(O/N=C(\C(=O)N[C@@H]1C(=O)N2C(C(=O)[O-])=C(C[n+]3ccccc3)CS[C@H]12)c1csc(N)n1)C(=O)O` [CEFTAZIDIME], for which the INH in the series with Pseudomonas aeruginosa [2] is 4 µg/mL; in the series with Escherichia coli [6], 0.25 µg/mL; in the series with Burkholderia cepacia, over 8 µg/mL; in the series on Salmonella enterica, 0.5 µg/mL.
Regarding `CC1(C)CC[C@]2(C(=O)O)CC[C@]3(C)C(=CC[C@@H]4[C@@]5(C)C[C@@H](c6ncc[nH]6)[C@H](O)C(C)(C)[C@@H]5CC[C@]43C)[C@@H]2C1`, the inhibition at 16 µg/mL in the series with Pseudomonas aeruginosa [3] is under 20%; in the series with Escherichia coli [4], over 90%. The MBIC50 in the series on Escherichia coli [5] amounted to 16 µg/mL.
Turning to `CNC(=N)[C@@H]1C[C@]2(C)[C@H]3CC=C4[C@@H]5CC(C)(C)CC[C@]5(C(=O)O)CC[C@@]4(C)[C@]3(C)CC[C@H]2C(C)(C)[C@H]1O`, the inhibition at 16 µg/mL with Pseudomonas aeruginosa [3] was under 20%; in the series with Escherichia coli [4], 30%. For the same compound, the MBIC50 result in the series on Escherichia coli [5] is “>=32 ug ml-1”.
For `CN1CCN=C1[C@@H]1C[C@]2(C)[C@H]3CC=C4[C@@H]5CC(C)(C)CC[C@]5(C(=O)O)CC[C@@]4(C)[C@]3(C)CC[C@H]2C(C)(C)[C@H]1O` the same measures were over 20%, under 20% and “>=32 ug ml-1”.
For the compound `NC[C@H]1O[C@H](O[C@H]2[C@H](O)[C@@H](O[C@H]3O[C@H](CO)[C@@H](O)[C@H](N)[C@H]3O)[C@H](N)C[C@@H]2N)[C@H](N)C[C@@H]1O` [TOBRAMYCIN], the INH was 4 µg/mL with Pseudomonas aeruginosa [2], 16 µg/mL in the series on Escherichia coli [6], over 64 µg/mL in the series with Burkholderia cepacia and 8 µg/mL in the series on Salmonella enterica. In addition, the inhibition entry with Pseudomonas aeruginosa [1] is “inactive”.
Regarding `CC1(C)CC[C@]2(C(=O)O)CC[C@]3(C)C(=CC[C@@H]4[C@@]5(C)Cc6c(n[nH]c6N)C(C)(C)[C@@H]5CC[C@]43C)[C@@H]2C1`, the inhibition at 16 µg/mL in the series with Pseudomonas aeruginosa [3] and in the series with Escherichia coli [4] was over 90% in each case. Further, the MBIC50 in the series on Escherichia coli [5] was 4 µg/mL. The INH with Pseudomonas aeruginosa [2] is 1 µg/mL; in the series on Escherichia coli [6], 1 µg/mL; in the series on Burkholderia cepacia it was 0.25 µg/mL; in the series on Salmonella enterica, 1 µg/mL; in the series on Pseudomonas syringae, under 0.5 µg/mL; in the series with Xanthomonas campestris, under 0.5 µg/mL. The INH in series [7] was under 0.5 µg/mL. Moreover, the outcome with Pseudomonas aeruginosa [8], in the series with Pseudomonas aeruginosa [9] and with Pseudomonas aeruginosa [10] was Active. The Activity result in the series with M14 was “Non-Toxic”; in the series on Pseudomonas aeruginosa [11], “Dose-dependent effect”; with Pseudomonas aeruginosa [12], “Dose-dependent effect”.
In the case of `CNC(=O)[C@@H]1C[C@]2(C)[C@H]3CC=C4[C@@H]5CC(C)(C)CC[C@]5(C(=O)O)CC[C@@]4(C)[C@]3(C)CC[C@H]2C(C)(C)[C@H]1O`, the inhibition at 16 µg/mL in the series on Pseudomonas aeruginosa [3] and in the series on Escherichia coli [4] was under 20% throughout. The compound further registered an MBIC50 in the series on Escherichia coli [5] of 4 µg/mL.
Turning to `CC1(C)CC[C@]2(C(=O)O)CC[C@]3(C)C(=CC[C@@H]4[C@@]5(C)C[C@@H](C6=NCCO6)[C@H](O)C(C)(C)[C@@H]5CC[C@]43C)[C@@H]2C1`, the inhibition at 16 µg/mL with Pseudomonas aeruginosa [3] and with Escherichia coli [4] was under 20% throughout. The compound further showed an MBIC50 with Escherichia coli [5] of 8 µg/mL.
